ChEMBL document CHEMBL5291721, “A preclinical secondary pharmacology resource illuminates target-adverse drug reaction associations of marketed drugs” (Nat Commun, 2023)
Where a SMILES comes first, the peptide text is derived from it. [ ]: non-standard residue; d: D form. pGlu = O=C1CC[C@@H](C(=O)O)N1; Thz = O=C(O)[C@@H]1CSCN1

Tests used:
[1] = molecular target: T1, Alpha-1A adrenergic receptor (Homo sapiens, UniProt P35348); format: functional, cell-based
T1 sequence (P35348 whole entry): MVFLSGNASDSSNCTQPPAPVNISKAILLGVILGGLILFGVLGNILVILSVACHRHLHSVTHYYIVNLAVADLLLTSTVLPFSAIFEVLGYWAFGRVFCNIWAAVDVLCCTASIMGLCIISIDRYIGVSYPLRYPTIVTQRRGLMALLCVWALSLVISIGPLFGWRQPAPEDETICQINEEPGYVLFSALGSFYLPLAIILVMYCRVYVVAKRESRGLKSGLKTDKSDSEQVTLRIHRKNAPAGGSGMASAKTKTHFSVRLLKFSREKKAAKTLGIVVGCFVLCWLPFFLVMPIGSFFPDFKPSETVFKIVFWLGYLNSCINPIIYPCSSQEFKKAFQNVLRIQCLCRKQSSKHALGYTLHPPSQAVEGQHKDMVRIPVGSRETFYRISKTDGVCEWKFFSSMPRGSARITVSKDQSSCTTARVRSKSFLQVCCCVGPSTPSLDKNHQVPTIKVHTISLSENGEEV

[2] = molecular target: T2, Alpha-2A adrenergic receptor (Homo sapiens, UniProt P08913); format: functional, cell-based
T2 sequence (P08913 whole entry): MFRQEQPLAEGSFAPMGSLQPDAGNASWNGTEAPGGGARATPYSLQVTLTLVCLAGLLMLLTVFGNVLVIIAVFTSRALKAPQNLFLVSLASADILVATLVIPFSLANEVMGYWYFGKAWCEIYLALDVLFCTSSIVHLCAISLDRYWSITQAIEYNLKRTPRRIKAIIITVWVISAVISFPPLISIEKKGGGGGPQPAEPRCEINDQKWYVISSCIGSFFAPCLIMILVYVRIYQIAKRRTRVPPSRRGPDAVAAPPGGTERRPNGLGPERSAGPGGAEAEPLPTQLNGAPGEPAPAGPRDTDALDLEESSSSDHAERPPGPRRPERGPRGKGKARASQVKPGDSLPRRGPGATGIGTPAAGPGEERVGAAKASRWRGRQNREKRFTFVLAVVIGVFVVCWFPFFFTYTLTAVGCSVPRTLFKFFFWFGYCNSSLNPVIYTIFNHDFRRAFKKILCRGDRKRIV

Progesterone receptor = molecular target: T3, Progesterone receptor (Homo sapiens, UniProt P06401); format: functional
T3 sequence (P06401 whole entry): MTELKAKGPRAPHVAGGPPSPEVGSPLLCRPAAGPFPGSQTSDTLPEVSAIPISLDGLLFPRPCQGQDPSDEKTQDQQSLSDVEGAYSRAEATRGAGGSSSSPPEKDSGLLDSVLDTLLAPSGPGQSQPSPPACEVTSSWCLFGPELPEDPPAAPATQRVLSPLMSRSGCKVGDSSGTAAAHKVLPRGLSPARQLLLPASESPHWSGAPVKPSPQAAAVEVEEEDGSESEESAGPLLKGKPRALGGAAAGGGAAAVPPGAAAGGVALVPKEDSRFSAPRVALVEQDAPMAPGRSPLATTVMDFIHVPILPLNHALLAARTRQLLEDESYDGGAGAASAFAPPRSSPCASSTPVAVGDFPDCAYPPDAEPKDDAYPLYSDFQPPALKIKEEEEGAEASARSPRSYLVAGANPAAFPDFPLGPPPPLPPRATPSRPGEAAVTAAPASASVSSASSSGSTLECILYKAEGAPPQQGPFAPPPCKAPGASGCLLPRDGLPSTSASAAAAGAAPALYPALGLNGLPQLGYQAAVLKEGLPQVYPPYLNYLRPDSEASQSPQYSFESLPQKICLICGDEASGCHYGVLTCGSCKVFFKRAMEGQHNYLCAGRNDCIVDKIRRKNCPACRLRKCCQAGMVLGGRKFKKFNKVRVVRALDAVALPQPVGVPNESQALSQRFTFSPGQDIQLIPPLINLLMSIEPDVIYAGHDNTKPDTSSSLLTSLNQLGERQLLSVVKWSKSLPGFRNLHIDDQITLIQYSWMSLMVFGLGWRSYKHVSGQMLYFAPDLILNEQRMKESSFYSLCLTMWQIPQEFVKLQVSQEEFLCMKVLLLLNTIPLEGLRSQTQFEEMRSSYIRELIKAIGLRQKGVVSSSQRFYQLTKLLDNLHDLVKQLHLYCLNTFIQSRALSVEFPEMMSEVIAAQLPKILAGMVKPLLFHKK

[3] = molecular target: T4, Equilibrative nucleoside transporter 1 (Homo sapiens, UniProt Q99808)
T4 sequence (Q99808 whole entry): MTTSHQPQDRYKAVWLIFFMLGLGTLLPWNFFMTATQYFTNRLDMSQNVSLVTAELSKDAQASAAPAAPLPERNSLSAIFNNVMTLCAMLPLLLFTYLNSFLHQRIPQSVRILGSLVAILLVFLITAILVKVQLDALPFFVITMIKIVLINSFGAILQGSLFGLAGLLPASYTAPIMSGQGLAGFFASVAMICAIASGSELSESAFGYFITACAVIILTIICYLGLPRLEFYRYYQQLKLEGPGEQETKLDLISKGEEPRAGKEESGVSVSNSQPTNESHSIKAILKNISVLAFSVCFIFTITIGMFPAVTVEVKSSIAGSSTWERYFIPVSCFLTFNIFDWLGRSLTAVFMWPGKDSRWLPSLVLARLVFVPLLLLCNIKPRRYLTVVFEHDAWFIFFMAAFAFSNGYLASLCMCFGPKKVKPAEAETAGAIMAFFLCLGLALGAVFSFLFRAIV

Adenosine receptor A3 = molecular target: T5, Adenosine receptor A3 (Homo sapiens, UniProt P0DMS8)
T5 sequence (P0DMS8 whole entry): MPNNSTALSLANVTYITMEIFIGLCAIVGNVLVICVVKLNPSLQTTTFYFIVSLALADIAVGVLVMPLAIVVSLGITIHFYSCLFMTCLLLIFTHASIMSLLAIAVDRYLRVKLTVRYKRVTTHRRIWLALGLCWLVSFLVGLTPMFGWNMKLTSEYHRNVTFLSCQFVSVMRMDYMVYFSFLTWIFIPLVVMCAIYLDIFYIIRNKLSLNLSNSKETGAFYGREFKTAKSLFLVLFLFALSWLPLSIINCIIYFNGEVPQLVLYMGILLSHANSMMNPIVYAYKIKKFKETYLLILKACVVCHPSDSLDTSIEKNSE

Adenosine receptor A2a = Adenosine receptor A2a (Homo sapiens, UniProt P29274)
Adenosine receptor A2a, sequence (P29274 whole entry): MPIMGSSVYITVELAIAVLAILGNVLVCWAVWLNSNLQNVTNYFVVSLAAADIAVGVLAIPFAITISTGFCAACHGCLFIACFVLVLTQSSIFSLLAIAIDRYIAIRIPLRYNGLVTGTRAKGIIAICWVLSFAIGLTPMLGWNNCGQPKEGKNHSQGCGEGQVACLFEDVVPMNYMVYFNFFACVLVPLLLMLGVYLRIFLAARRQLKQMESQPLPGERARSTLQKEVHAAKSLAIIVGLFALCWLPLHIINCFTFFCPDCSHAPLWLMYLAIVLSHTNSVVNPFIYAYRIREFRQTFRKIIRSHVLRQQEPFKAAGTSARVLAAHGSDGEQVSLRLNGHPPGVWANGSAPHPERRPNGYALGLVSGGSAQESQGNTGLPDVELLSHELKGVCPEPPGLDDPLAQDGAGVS

[4] = molecular target: Voltage-dependent L-type calcium channel subunit alpha-1C (Rattus norvegicus, UniProt P22002); format: functional
Voltage-dependent L-type calcium channel subunit alpha-1C, sequence (P22002 whole entry): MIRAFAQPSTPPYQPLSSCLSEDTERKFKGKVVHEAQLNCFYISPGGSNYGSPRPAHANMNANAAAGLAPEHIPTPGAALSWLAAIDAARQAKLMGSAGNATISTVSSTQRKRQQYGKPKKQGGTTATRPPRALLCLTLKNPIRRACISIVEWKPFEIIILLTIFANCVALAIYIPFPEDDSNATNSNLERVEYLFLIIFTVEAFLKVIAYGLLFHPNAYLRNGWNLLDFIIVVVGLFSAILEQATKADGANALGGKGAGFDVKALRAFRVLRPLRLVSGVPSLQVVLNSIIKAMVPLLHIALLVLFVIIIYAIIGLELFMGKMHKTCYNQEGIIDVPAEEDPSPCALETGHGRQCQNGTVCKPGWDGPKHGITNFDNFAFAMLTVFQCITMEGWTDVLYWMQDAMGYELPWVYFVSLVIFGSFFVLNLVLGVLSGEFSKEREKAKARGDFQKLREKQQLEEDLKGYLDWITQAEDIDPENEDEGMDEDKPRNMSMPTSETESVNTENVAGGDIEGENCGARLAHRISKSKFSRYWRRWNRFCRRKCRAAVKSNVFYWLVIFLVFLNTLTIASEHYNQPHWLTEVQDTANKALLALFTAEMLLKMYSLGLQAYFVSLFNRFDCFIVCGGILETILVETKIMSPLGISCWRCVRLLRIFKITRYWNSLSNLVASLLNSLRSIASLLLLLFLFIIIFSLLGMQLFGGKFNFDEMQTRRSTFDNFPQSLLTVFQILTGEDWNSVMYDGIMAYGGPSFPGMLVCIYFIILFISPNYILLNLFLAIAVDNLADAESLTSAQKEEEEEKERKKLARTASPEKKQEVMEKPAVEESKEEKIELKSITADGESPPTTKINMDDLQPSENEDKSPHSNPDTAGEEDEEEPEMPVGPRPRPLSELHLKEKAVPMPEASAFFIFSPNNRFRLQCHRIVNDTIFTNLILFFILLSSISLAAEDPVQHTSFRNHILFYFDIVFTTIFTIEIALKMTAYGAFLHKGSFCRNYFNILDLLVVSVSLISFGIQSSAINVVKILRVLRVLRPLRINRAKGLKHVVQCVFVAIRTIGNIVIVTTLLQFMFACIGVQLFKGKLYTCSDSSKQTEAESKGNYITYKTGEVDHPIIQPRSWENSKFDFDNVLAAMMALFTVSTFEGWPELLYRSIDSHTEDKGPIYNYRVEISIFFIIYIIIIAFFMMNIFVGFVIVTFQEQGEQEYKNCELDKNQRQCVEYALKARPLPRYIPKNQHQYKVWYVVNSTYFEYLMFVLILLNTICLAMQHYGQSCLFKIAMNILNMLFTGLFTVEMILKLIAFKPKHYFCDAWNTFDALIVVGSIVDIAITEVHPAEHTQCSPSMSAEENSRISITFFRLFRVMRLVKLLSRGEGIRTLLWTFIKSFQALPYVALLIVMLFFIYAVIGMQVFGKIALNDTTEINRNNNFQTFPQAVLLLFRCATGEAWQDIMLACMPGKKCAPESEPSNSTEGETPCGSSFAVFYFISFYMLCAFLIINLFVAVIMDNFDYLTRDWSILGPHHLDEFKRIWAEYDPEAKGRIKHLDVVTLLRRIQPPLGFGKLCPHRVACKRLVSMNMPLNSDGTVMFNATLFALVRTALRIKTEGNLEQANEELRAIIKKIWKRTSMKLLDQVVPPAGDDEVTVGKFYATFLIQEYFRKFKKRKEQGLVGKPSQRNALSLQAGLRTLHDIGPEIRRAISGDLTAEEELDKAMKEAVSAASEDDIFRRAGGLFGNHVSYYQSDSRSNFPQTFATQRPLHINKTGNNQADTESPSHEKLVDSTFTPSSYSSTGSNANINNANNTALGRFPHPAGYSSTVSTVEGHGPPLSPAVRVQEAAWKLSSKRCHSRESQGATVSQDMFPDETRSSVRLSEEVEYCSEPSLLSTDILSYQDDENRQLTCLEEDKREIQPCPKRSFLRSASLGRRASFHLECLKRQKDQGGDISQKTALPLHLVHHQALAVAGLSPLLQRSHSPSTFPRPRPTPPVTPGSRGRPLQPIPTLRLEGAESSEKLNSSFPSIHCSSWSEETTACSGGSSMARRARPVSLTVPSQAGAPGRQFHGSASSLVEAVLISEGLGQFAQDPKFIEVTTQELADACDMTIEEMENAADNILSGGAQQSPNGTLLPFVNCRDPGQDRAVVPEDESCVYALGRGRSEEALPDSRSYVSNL
Also: assay procedure not described here.

Structure (SMILES) | AC50 [1] | AC50 [2] | AC50 (Progesterone receptor) | AC50 [3] | AC50 (Adenosine receptor A3) | AC50 (Adenosine receptor A2a) | AC50 [4]
CCOC(=O)c1ncn2c1CN(C)C(=O)c1cc(F)ccc1-2 [FLUMAZENIL] | > 30 µM | > 30 µM | > 30 µM | > 30 µM | > 30 µM | > 30 µM | > 30 µM
CC/C=C\C/C=C\C/C=C\C/C=C\C/C=C\CCCC(=O)OCC [ICOSAPENT ETHYL] | > 30 µM | > 30 µM | 3.5 µM | > 30 µM | 18 µM | > 30 µM | > 30 µM
NNC(=O)c1ccncc1 [ISONIAZID] | > 30 µM | > 30 µM | > 30 µM | > 30 µM | 32.7 µM | > 30 µM | > 30 µM
COc1ccc(CN2CCN(C(c3ccc(F)cc3)c3ccc(F)cc3)CC2)c(OC)c1OC [LOMERIZINE] | > 30 µM | > 30 µM | > 30 µM | > 30 µM | 17 µM | > 30 µM | 2.4 µM
COc1ccc2cc(CCC(C)=O)ccc2c1 [NABUMETONE] | > 30 µM | > 10 µM | > 10 µM | > 30 µM | > 10 µM | > 10 µM | > 10 µM
OC[C@H]1O[C@@H](Oc2cc(O)cc(/C=C/c3ccc(O)cc3)c2)[C@H](O)[C@@H](O)[C@@H]1O [PICEID] | > 30 µM | > 30 µM | > 30 µM | > 30 µM | > 30 µM | > 30 µM | > 30 µM
O=C1CC[C@@H](C(=O)N2CSC[C@H]2C(=O)O)N1 [PIDOTIMOD] ([pGlu]-[Thz]-OH) | > 30 µM | > 30 µM | > 30 µM | > 30 µM | > 30 µM | > 30 µM | > 30 µM
CCC(NC(C)C)C(O)c1ccc(O)c2[nH]c(=O)ccc12 (configuration not stated) [PROCATEROL] | > 30 µM | > 30 µM | > 30 µM | > 30 µM | > 30 µM | > 30 µM | > 30 µM
CCc1nc(N)nc(N)c1-c1ccc(Cl)cc1 [PYRIMETHAMINE] | > 30 µM | 9.8 µM | > 10 µM | > 30 µM | > 10 µM | > 10 µM | > 10 µM
C=CC[N+]1([C@H]2C[C@H]3[C@@H]4CC[C@H]5C[C@H](O)[C@@H](N6CCOCC6)C[C@]5(C)[C@H]4CC[C@]3(C)[C@H]2OC(C)=O)CCCC1 [ROCURONIUM] | > 30 µM | > 30 µM | > 30 µM | > 30 µM | > 30 µM | > 30 µM | > 30 µM
CCCN1CCCC[C@H]1C(=O)Nc1c(C)cccc1C [ROPIVACAINE] | > 30 µM | > 30 µM | > 30 µM | > 30 µM | > 30 µM | > 30 µM | > 30 µM
C=CCN1CCc2nc(N)sc2CC1 [TALIPEXOLE] | 2.5 µM | 0.083 µM | > 30 µM | > 30 µM | > 30 µM | > 30 µM | > 30 µM
Cn1c(=O)c2c(ncn2CCOC(=O)C(C)(C)Oc2ccc(Cl)cc2)n(C)c1=O [THEOFIBRATE] | > 30 µM | > 30 µM | > 30 µM | > 30 µM | > 30 µM | > 30 µM | > 30 µM
COc1cc(C(=O)NC2CCCNC2)cc(OC)c1OC (configuration not stated) [TROXIPIDE] | > 30 µM | > 30 µM | > 30 µM | > 30 µM | > 30 µM | > 30 µM | > 30 µM
CC(C(=O)O)c1ccc2c(c1)CC(=O)c1ccccc1S2 (configuration not stated) [ZALTOPROFEN] | > 30 µM | > 30 µM | > 30 µM | > 30 µM | > 30 µM | > 30 µM | > 30 µM
CC(c1cc2ccccc2s1)N(O)C(N)=O (configuration not stated) [ZILEUTON] | > 30 µM | > 10 µM | > 30 µM | > 10 µM | > 10 µM | > 10 µM | > 10 µM
